# Literature values as cited in patent US20080268488A1, “Screening Method for Dnak Inhibitors” (priority 2005, published 2008).
# No end group written: not given here.
# Settings: aminopeptidase and carboxypeptidase cleavage products observed
row,Sequence,susceptibility to proteolytic degradation in the presence of mammalian serum
1,"GKPRPYSPRPTSHPRPIRV [drosocin, Gly-Lys-Pro-Arg-Pro-Tyr-Ser-Pro-Arg-Pro-Thr-Ser-His-Pro-Arg-Pro-Ile-Arg-Val]",highly susceptible to proteolytic degradation
2,VDKGSYLPRPTPPRPIYNRN [pyrrhocoricin],highly susceptible to proteolytic degradation
